Laboratory results reported in patent US20200339544A1 (JOINT STOCK COMPANY "BIOCAD", priority 2017, published 2020).

Assays:
[1] = Chemical stability in human blood plasma; format: in vitro ADME; conditions: pooled human blood plasma; 10 μm; 4 hours at 37° C.; substance amount remaining
Method in brief: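 Percent of parent remaining was derived by comparing HPLC peak areas at time zero and after 4 h at 37 °C. Test compound was at 10 μM in human plasma pooled from ten donors, and proteins were precipitated with acetonitrile before analysis.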

[2] = Chemical stability in simulated intestinal fluid (SIF); format: physicochemical; conditions: SIF without enzymes, pH 6.5; 10 μm; 2 hours at 37° C.; substance amount remaining
Method in brief: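 Compound at 10 μm (diluted from 10 mM DMSO stock) incubated 2 h at 37° C in enzyme-free SGF, pH=1,4, or enzyme-free SIF, pH=6.5. HPLC peak areas before and after incubation give % compound remaining.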

HepG2 cells = assay: General cytotoxicity on HepG2 cells; format: cell-based; conditions: therapeutic index, CC50 HepG2 / IC50 H1975
Method in brief: (§1)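 HepG2 cells seeded at 2*10^4 cells per well and compounds added in DMEM with 2% FBS for 72 h at 37 °C. Viability read with Alamar Blue and CC50 derived as for IC50. Therapeutic index taken as HepG2 CC50 over H1975 IC50.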

[3] = General cytotoxicity on HepG2 cells; format: cell-based; conditions: human; general cytotoxicity, HepG2 cells, 72 hours, average of several tests
Method in brief: as §1

[4] = target: T1, DM EGFR (DoubleMutantEGFR, L828R/T790M) (Homo sapiens, UniProt P00533, L858R/T790M); assay: Inhibition of DM EGFR kinase activity (ADP-Glo); format: biochemical; conditions: for IC50: inhibition of kinase activity, EGFR DM (L828R/T790M); for SI, IC50(WT)/IC50(DM): selectivity index, kinase EGFR WT vs EGFR DM
T1 construct: purchased SignalChem
Method in brief: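 Luminescent ADP-Glo readout was used for both wild-type and L858R/T790M EGFR, each run 180 minutes at 37° C. Reactions used a solution of 50 μM ATP with 0.5 mg/mL peptide substrate. Four-parameter logistic curves gave IC50.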

[5] = Enzyme stability in human liver S9 fractions; format: in vitro ADME; conditions: 0.5 mg/mL pooled human liver S9 fractions; 10 μM compound; 37° C.; pH 7.4; read-out: Stability in liver S9 fractions, Clint
Method in brief: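 Compound at 10 μM was incubated at 37 °C with 0.5 mg/mL pooled human liver S9, 2 mM β-NAD and 4 mM MgCl2 in 0.1 M sodium phosphate, pH 7.4, then quenched with acetonitrile and analysed chromatographically. T½ and CLint were derived from the slope of log peak area versus time.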

| Structure (SMILES) | Stability in blood plasma, % [1] | Stability in SIF, % [2] | IC50 [4] | SI, IC50(WT)/IC50(DM) [4] | Intrinsic clearance in human liver S9 fractions at 10 µM [5] | TI, CC50/IC50 (HepG2 cells) | CC50 at 72 h [3] |
| --- | --- | --- | --- | --- | --- | --- | --- |
| C=CC(=O)Nc1cc(Nc2nccc(C(=O)c3ccc(F)cc3)n2)c(OC)cc1N(C)CCN(C)C [EGFR_3365_10, N-(2-((2-(dimethylamino)ethyl)(methyl)amino)-5-((4-(4-fluorobenzoyl)pyrimidin-2-yl)amino)-4-methoxyphenyl) acrylamide] | 94.2% | 100.0% | 0.00728 µM | 29.06 | 6.8 µL/min/mg | 144 | 30.4 µM |
| C=CC(=O)Nc1cc(Nc2cc(C(=O)c3ccc(N(C)C)cc3)ccn2)c(OC)cc1N(C)CCN(C)C.O=C(O)C(F)(F)F [EGFR_3365_4, N-(5-((4-(4-(dimethylamino)benzoyl)pyridin-2-yl)amino)-2-((2-(dimethylamino)ethyl) (methyl)amino)-4-methoxyphenyl)acrylamide 2,2,2-trifluoroacetate] | – | 100.0% | 0.0214 µM | 10.79 | 0.9 µL/min/mg | 419 | 14.8 µM |
| C=CC(=O)Nc1cc(Nc2cc(C(=O)c3ccccc3)ccn2)c(OC)cc1N(C)CCN(C)C [EGFR_3365_3, N-(5-((4-benzoylpyridin-2-yl)amino)-2-((2-(dimethylamino)ethyl)(methyl)amino)-4-methoxyphenyl)acrylamide] | 82.1% | 100.0% | 0.0145 µM | 5.29 | – | 341 | 15.2 µM |
| C=CC(=O)Nc1cc(Nc2nccc(C(=O)c3ccc(OCC)cc3)n2)c(OC)cc1N(C)CCN(C)C [EGFR_3365_29, N-(2-((2-(dimethylamino)ethyl)(methyl)amino)-5-((4-(4-ethoxybenzoyl)pyrimidin-2-yl)amino)-4-methoxyphenyl) acrylamide] | 79.7% | 100.0% | 0.0107 µM | 18.79 | – | 1135 | 30.6 µM |
| C=CC(=O)Nc1cc(Nc2nccc(C(=O)c3ccc(OC)cc3)n2)c(OC)cc1N(C)CCN(C)C [EGFR_3365_28, N-(2-((2-(dimethylamino)ethyl)(methyl)amino)-4-methoxy-5-((4-(4-methoxybenzoyl)pyrimidin-2-yl)amino)phenyl)acrylamide] | 86.2% | 100.0% | 0.00627 µM | 20.33 | – | 1836 | 31.4 µM |
| C=CC(=O)Nc1cc(Nc2nccc(C(=O)c3ccccc3Br)n2)c(OC)cc1N(C)CCN(C)C [EGFR_3365_12, N-(5-((4-(2-bromobenzoyl)pyrimidin-2-yl)amino)-2-((2-(dimethylamino)ethyl) (methyl)amino)-4-methoxyphenyl)acrylamide] | 76.3% | 100.0% | 0.0255 µM | 15.25 | – | 1051 | 22.6 µM |

Now from value to molecule, other results behind:

| Stability in blood plasma, % [1] | Stability in SIF, % [2] | IC50 [4] | SI, IC50(WT)/IC50(DM) [4] | Intrinsic clearance in human liver S9 fractions at 10 µM [5] | Structure (SMILES) | TI, CC50/IC50 (HepG2 cells) | CC50 at 72 h [3] |
| --- | --- | --- | --- | --- | --- | --- | --- |
| – | 92.9% | 0.00769 µM | 79.77 | 1.2 µL/min/mg | C=CC(=O)Nc1cc(Nc2nccc(C(=O)c3ccc(OCCC)cc3)n2)c(OC)cc1N(C)CCN(C)C [EGFR_3365_30, N-(2-((2-(dimethylamino)ethyl)(methyl)amino)-4-methoxy-5-((4-(4-propoxybenzoyl)pyrimidin-2-yl)amino)phenyl)acrylamide] | 666 | 10.9 µM |
| 98.1% | – | 0.00075 µM | 43.40 | 23.1 µL/min/mg | C=CC(=O)Nc1cc(Nc2nccc(C(=O)c3ccc(N4CCCCC4)cc3)n2)c(OC)cc1N(C)CCN(C)C [EGFR_3365_90, N-(2-((2-(dimethylamino)ethyl)(methyl)amino)-4-methoxy-5-((4-(4-(piperidin-1-yl)benzoyl)pyrimidin-2-yl)amino)phenyl)acrylamide] | 1689 | 12.8 µM |
| 82.7% | – | 0.0112 µM | 18.40 | 21.9 µL/min/mg | C=CC(=O)Nc1cc(Nc2nccc(C(=O)c3ccc(OC)cc3OCCC)n2)c(OC)cc1N(C)CCN(C)C [EGFR_3365_102, N-(2-((2-(dimethylamino)ethyl)(methyl)amino)-4-methoxy-5-((4-(4-methoxy-2-propoxybenzoyl)pyrimidin-2-yl)amino)phenyl)acrylamide] | 342 | 27.5 µM |
| – | 100.0% | 0.00641 µM | 10.58 | 16.6 µL/min/mg | C=CC(=O)Nc1cc(Nc2cc(C(=O)c3ccc(OCC)cc3)ccn2)c(OC)cc1N(C)CCN(C)C [EGFR_3365_52, N-(2-((2-(dimethylamino)ethyl)(methyl)amino)-5-((4-(4-ethoxybenzoyl)pyridin-2-yl)amino)-4-methoxyphenyl) acrylamide] | 237 | 15.6 µM |
| 93.1% | 97.2% | 0.00865 µM | 15.12 | – | C=CC(=O)Nc1cc(Nc2nccc(C(=O)c3ccc(OC(C)C)cc3)n2)c(OC)cc1N(C)CCN(C)C [EGFR_3365_31, N-(2-((2-(dimethylamino)ethyl)(methyl)amino)-5-((4-(4-isopropoxybenzoyl)pyrimidin-2-yl)amino)-4-methoxyphenyl) acrylamide] | 1293 | 9.49 µM |
| – | 100.0% | 0.00472 µM | 10.75 | 16.2 µL/min/mg | C=CC(=O)Nc1cc(Nc2cc(C(=O)c3ccc(OC)cc3)ccn2)c(OC)cc1N(C)CCN(C)C [EGFR_3365_51, N-(2-((2-(dimethylamino)ethyl)(methyl)amino)-4-methoxy-5-((4-(4-methoxybenzoyl)pyridin-2-yl)amino)phenyl)acrylamide] | 620 | 20.9 µM |
| 83.3% | – | 0.00141 µM | 18.02 | – | C=CC(=O)Nc1cc(Nc2nccc(C(=O)c3cc4ccccc4n3C)n2)c(OC)cc1N(C)CCN(C)C [EGFR_3365_94, N-(2-((2-(dimethylamino)ethyl) (methyl)amino)-4-methoxy-5-((4-(1-methyl-1H-indole-2-carbonyl)pyrimidin-2-yl)amino)phenyl)acrylamide] | 1801 | 12 µM |
| 98.3% | – | 0.00089 µM | 24.30 | 1.4 µL/min/mg | C=CC(=O)Nc1cc(Nc2nccc(C(=O)c3ccc(N4CCC(N)CC4)cc3)n2)c(OC)cc1N(C)CCN(C)C [EGFR_3365_121, N-(5-((4-(4-(4-aminopiperidin-1-yl)benzoyl)pyrimidin-2-yl)amino)-2-((2-(dimethylamino)ethyl)(methyl)amino)-4-methoxyphenyl)acrylamide] | 17832 | 75.1 µM |
